We go through 26 compounds from patent publication US20100068197A1, “PHARMACEUTICAL COMPOUNDS AS INHIBITORS OF CELL PROLIFERATION AND THE USE THEREOF” (Myriad Pharmaceuticals, Inc., priority 2008, published 2010).

The subject of experiment [1] is P388/ADR cell lines (overexpress the multidrug resistance pump MDR-1). Nature of the experiment: Multidrug resistant cell assay, cell viability by ATP-lite. Format: cell-based, murine. The text has this:
Cytotoxicity of compounds in multidrug resistant cells can be determined by administering compounds to cell lines that overexpress the multidrug resistance pump MDR-1 and determining the viability of the cell lines. P388/ADR cell lines are known to overexpress the multidrug resistance pump MDR-1 (also known as P-glycoprotein-1; Pgp-1).
P388/ADR cell lines are obtained from American Type Culture Collection (Manassas, Va.) and maintained in RPMI-1640 media supplemented with 10% FCS, 10 units/mL penicillin and streptomycin, 2 mM Glutamax and 1 mM sodium pyruvate (Invitrogen Corporation, Carlsbad, Calif.). For compound testing, cells are plated in 96 well dishes at a concentration of 1.5×10^4 cells/well. Cells are allowed to adhere to the plate overnight and then incubated with compounds at final concentrations ranging from 0.13 nM to 10 μM for 72 hours. Cell viability is then assessed using the ATP-lite reagent (Perkin Elmer, Foster City, Calif.). Plates are read on a Wallac Topcount luminescence reader (Perkin Elmer, Foster City, Calif.) and the results graphed in Prism software (Graphpad Software, Inc., San Diego, Calif.). Non-linear regression with variable slope analysis is performed to obtain IC50 concentration values.

Experiment [2] has as its system P388 murine leukemia cell line. Nature of the experiment: P388 cytotoxicity, cellular viability by ATP-Lite. It is filed as cell-based. The following applies: compound concentration required to inhibit growth by 50%, intracellular ATP. How it is done: A P388 murine leukemia cell line was obtained from NCI, Frederick, Md. P388 cells were cultured in RPMI-1640 supplemented with 10% fetal bovine serum, 2 mM Glutamax, 1 mM sodium pyruvate, 0.1 mM non-essential amino acids and 10 mM HEPES. Cells were grown at 37° C. in a humidified 5% CO2 atmosphere. Exponentially growing P388 cells were plated at 5,000 cells/well in a 96-well flat-bottomed microtiter plate (Corning, Costar #3595). […] Cellular viability was determined 72 hours later by measuring intracellular ATP with ATP-Lite assay system. The effect of compounds on cell viability was calculated by comparing the ATP levels of cells exposed to test compound with those of cells exposed to DMSO. A semi-log plot of relative ATP levels versus compound concentration was used to calculate the compound concentration required to inhibit growth by 50% (IC50). Data was analyzed by Prism software (GraphPad; San Diego, Calif.) by fitting it to a sigmoidal dose response curve.

Where [3] appears, read: Mus musculus, 72 h, multidrug resistant cells overexpressing MDR-1.
The mark [4] stands for this setting: multidrug resistant cells overexpressing MDR-1, 72 hours.

The IC50 is the concentration that gives 50% inhibition. Take `COc1ccc(N(C)c2nc(NCCNC(C)=O)nc3ccccc23)cc1OC` [Example 20, N-(2-{4-[(3,4-Dimethoxy-phenyl)-methyl-amino]-quinazolin-2-ylamino}-ethyl)-acetamide]: the IC50 in experiment [1] (setting [3]) turned out to be 9400 nM; in experiment [2] (Mus musculus, P388, 72 h) it was 1700 nM; in experiment [2] (72 hours), 1100 nM.
Take `CCOC(=O)C1C=CC(C)n2c(=O)n(CCNc3nc(N(C)c4ccc(OC)cc4)c4ccccc4n3)c(=O)n21` (centres unmarked) [Example 6, 2-(2-{4-[(4-Methoxy-phenyl)-methyl-amino]-quinazolin-2-ylamino}-ethyl)-8-methyl-1,3-dioxo-2,3,5,8-tetrahydro-1H-[1,2,4]triazolo[1,2-a]pyridazine-5-carboxylic acid ethyl ester]: the IC50 in experiment [1] (setting [3]) was 3500 nM; in experiment [2] (Mus musculus, P388, 72 h), 3000 nM.
On the same counts, the results for `COc1ccc(N(C)c2nc(NCCOC(=O)[C@H](Cc3c[nH]c4ccccc34)NC(=O)OCc3ccccc3)nc3ccccc23)cc1` [Example 29, (S)-2-Benzyloxycarbonylamino-3-(1H-indol-3-yl)-propionic acid 2-{4-[(4-methoxy-phenyl)-methyl-amino]-quinazolin-2-ylamino}-ethyl ester] are 40 nM and 32 nM.
On the same counts, the results for `COc1ccc(N(C)c2nc(NCC(O)CN)nc3ccccc23)cc1` (centres unmarked) [Example 44, 1-Amino-3-{4-[(4-methoxy-phenyl)-methyl-amino]-quinazolin-2-ylamino}-propan-2-ol] are 57 nM and 37 nM.
With `COc1ccc(N(C)c2nc(CN(CCCO)Cc3nc(N(C)c4ccc(OC)cc4)c4ccccc4n3)nc3ccccc23)cc1` [Example 54, 3-(Bis-{4-[(4-methoxy-phenyl)-methyl-amino]-quinazolin-2-ylmethyl}-amino)-propan-1-ol], the IC50 was found to be 76 nM in experiment [1] (setting [3]) and 64 nM in experiment [2] (Mus musculus, P388, 72 h).
On the same counts, the results for `CCOCCOCCOCCOc1nc(N(C)c2ccc(OC)cc2)c2ccccc2n1` [Example 7, (2-{2-[2-(2-Ethoxy-ethoxy)-ethoxy]-ethoxy}-quinazolin-4-yl)-(4-methoxy-phenyl)-methyl-amine] are 520 nM and 1400 nM.
Taken in the same sequence, the figures for `COc1ccc(N(C)c2nc(N[C@@H](C)[C@H](O)c3ccccc3)nc3ccccc23)cc1` [Example 24, (1R,2S)-2-{4-[(4-Methoxy-phenyl)-methyl-amino]-quinazolin-2-ylamino}-1-phenyl-propan-1-ol] were 1700 nM and 1600 nM.
Consider `COc1ccc(N(C)c2nc(NCCOC(=O)[C@H](N)CCCCN)nc3ccccc23)cc1` [Example 15, (R)-2,6-Diamino-hexanoic acid 2-{4-[(4-methoxy-phenyl)-methyl-amino]-quinazolin-2-ylamino}-ethyl ester], for which the IC50 came to 33 nM in experiment [1] (setting [3]); 22 nM in experiment [1] (setting [4]); 11 nM in experiment [2] (Mus musculus, P388, 72 h); 15 nM in experiment [2] (72 hours).
On the same counts, the results for `COc1ccc(N(C)c2nc(NCCNC(=O)OC(C)(C)C)nc3ccccc23)cc1OC` [Example 14, (2-{4-[(3,4-Dimethoxy-phenyl)-methyl-amino]-quinazolin-2-ylamino}-ethyl)-carbamic acid tert-butyl ester] are 340 nM, 350 nM, 300 nM and 340 nM.
As to `COc1ccc(N(C)c2nc(N[C@@H](CO)c3ccccc3)nc3ccccc23)cc1` [Example 23, (R)-2-{4-[(4-Methoxy-phenyl)-methyl-amino]-quinazolin-2-ylamino}-2-phenyl-ethanol], the half-inhibitory concentration (IC50) in experiment [1] (setting [3]) is 3300 nM; in experiment [2] (Mus musculus, P388, 72 h), 4600 nM.
Taken in the same sequence, the figures for `COc1ccc(N(C)c2nc(CNC(=O)OC(COC(C)=O)COC(C)=O)nc3ccccc23)cc1` [Example 55, Acetic acid 3-acetoxy-2-{4-[(4-methoxy-phenyl)-methyl-amino]-quinazolin-2-ylmethylcarbamoyloxy}-propyl ester] were 450 nM and 330 nM.
On the same counts, the results for `COC(=O)NCCNc1nc(N(C)c2ccc(OC)cc2)c2cc(OC)ccc2n1` [Example 26, (2-{6-Methoxy-4-[(4-methoxy-phenyl)-methyl-amino]-quinazolin-2-ylamino}-ethyl)-carbamic acid methyl ester] are 7400 nM and 7200 nM.
Taken in the same sequence, the figures for `COc1ccc(N(C)c2nc(CNS(=O)(=O)c3ccc(OC)cc3)nc3ccccc23)cc1` [Example 45, 4-Methoxy-N-{4-[(4-methoxy-phenyl)-methyl-amino]-quinazolin-2-ylmethyl}-benzenesulfonamide] were 1800 nM and 1700 nM.
In the case of `COc1ccc(N(C)c2nc(NCC(O)CNc3nc(N(C)c4ccc(OC)cc4)c4ccccc4n3)nc3ccccc23)cc1` [Example 42, 1,3-Bis-{4-[(4-methoxy-phenyl)-methyl-amino]-quinazolin-2-ylamino}-propan-2-ol], the IC50 came out at 880 nM in experiment [1] (setting [3]) and 680 nM in experiment [2] (Mus musculus, P388, 72 h).
On the same counts, the results for `COC(=O)NCCNc1nc(N(C)c2ccc(OC)cc2)c2cc(C)ccc2n1` [Example 30, (2-{4-[(4-Methoxy-phenyl)-methyl-amino]-6-methyl-quinazolin-2-ylamino}-ethyl)-carbamic acid methyl ester] are 160 nM and 85 nM.
On the same counts, the results for `COc1ccc(N(C)c2nc(NCCNC(=O)CN)nc3ccccc23)cc1` [Example 41, 2-Amino-N-(2-{4-[(4-methoxy-phenyl)-methyl-amino]-quinazolin-2-ylamino}-ethyl)-acetamide] are 5300 nM and 1700 nM.
Regarding `COc1ccc(N(C)c2nc(NCCNC(C)=O)nc3ccc(C)cc23)cc1` [Example 18, N-(2-{4-[(4-Methoxy-phenyl)-methyl-amino]-6-methyl-quinazolin-2-ylamino}-ethyl)-acetamide], the 50% inhibitory concentration (IC50) is 2500 nM in experiment [1] (setting [3]) and 1400 nM in experiment [1] (setting [4]).
As to `COCCOCCOc1nc(N(C)c2ccc(OC)cc2)c2ccccc2n1` [Example 1, {2-[2-(2-Methoxy-ethoxy)-ethoxy]-quinazolin-4-yl}-(4-methoxy-phenyl)-methyl-amine], the IC50 in experiment [1] (setting [3]) turned out to be 580 nM; in experiment [2] (Mus musculus, P388, 72 h), 490 nM.
On the same counts, the results for `COc1ccc(N(C)c2nc(NCCOC(=O)[C@@H](N)CC(N)=O)nc3ccccc23)cc1` [Example 33, (S)-2-Amino-succinamic acid 2-{4-[(4-methoxy-phenyl)-methyl-amino]-quinazolin-2-ylamino}-ethyl ester] are 18 nM and 17 nM.
On the same counts, the results for `COC(=O)NCCNc1nc(N(C)c2ccc(OC)cc2)c2ccccc2n1` [Example 38, (2-{4-[(4-Methoxy-phenyl)-methyl-amino]-quinazolin-2-ylamino}-ethyl)-carbamic acid methyl ester] are 53 nM and 19 nM.
On the same counts, the results for `CNC(=O)NCCNc1nc(N(C)c2ccc(OC)cc2)c2cc(OC)ccc2n1` [Example 37, 1-(2-{6-Methoxy-4-[(4-methoxy-phenyl)-methyl-amino]-quinazolin-2-ylamino}-ethyl)-3-methyl-urea] are 6600 nM and 4700 nM.
Regarding `COC(=O)[C@H](Cc1ccc(O)cc1)Nc1nc(N(C)c2ccc(OC)cc2)c2ccccc2n1` [Example 34, (S)-3-(4-Hydroxy-phenyl)-2-{4-[(4-methoxy-phenyl)-methyl-amino]-quinazolin-2-ylamino}-propionic acid methyl ester], the IC50 worked out at 43 nM in experiment [1] (setting [3]) and 36 nM in experiment [2] (Mus musculus, P388, 72 h).
Regarding `COc1ccc(N(C)c2nc(OCCN3CCN(CCO)CC3)nc3ccccc23)cc1` [Example 5, 2-[4-(2-{4-[(4-Methoxy-phenyl)-methyl-amino]-quinazolin-2-yloxy}-ethyl)-piperazin-1-yl]-ethanol], half-maximal inhibition in experiment [2] (Mus musculus, P388, 72 h) (IC50) required 3600 nM.
The compound `COc1ccc(N(C)c2nc(NCCOP(=O)(OC(C)(C)C)OC(C)(C)C)nc3ccccc23)cc1` [Example 10, Phosphoric acid di-tent-butyl ester 2-{4-[(4-methoxy-phenyl)-methyl-amino]-quinazolin-2-ylamino}-ethyl ester] came in with an IC50 in experiment [1] (setting [3]) of 380 nM. In other words, the sub-micromolar range.
In experiment [2] (Mus musculus, P388, 72 h), `COc1ccc(N(C)c2nc(NCCNC(N)=O)nc3ccc(OC)cc23)cc1` [Example 22, (2-{6-Methoxy-4-[(4-methoxy-phenyl)-methyl-amino]-quinazolin-2-ylamino}-ethyl)-urea] had an IC50 of 9300 nM.
As for `COc1ccc(N(C)c2nc(N(CCNC(C)=O)C(C)=O)nc3ccccc23)cc1` [Example 39, N-[2-(Acetyl-{4-[(4-methoxy-phenyl)-methyl-amino]-quinazolin-2-yl}-amino)-ethyl]-acetamide], the IC50 in experiment [2] (Mus musculus, P388, 72 h) stood at 3800 nM. This IC50 lies about 2.4-fold lower than the previous one.
